A short description of this data set: Evaluation of restricted permeability of in vitro BBB model with fluorescein sodium (Transwell). The following applies: NaFl 10 μg/mL in upper chamber, read-out: permeability coefficient Papp. Type of data set: in vitro ADME, mouse. The protocol: Experimental method: an in vitro blood-brain barrier model was established to evaluate the permeability of dual-modality nanoprobes. U87-MG cells and bEnd.3 cells were cultured in high glucose DMEM containing 10% fetal bovine serum and 1% penicillin/streptomycin at 37° C. and 5% CO2. A thin layer of collagen solution was evenly coated on the inner side of Transwell poly microporous lipid membrane, the membrane was placed on an ultra-clean table for about 30 min, and it was used after naturally dried. bEnd.3 cells were inoculated into the upper chamber of a 24-well Transwell at a density of 5×10^4 cells/well. Two days later, U87-MG cells were inoculated into the lower chamber of the upper chamber at a density of 1×10^5 cells/well, and the two kind of cells were continued to co-culture for one week.
The permeability of BBB in vitro was evaluated by fluorescein sodium, and a series of standard solutions of fluorescein sodium (NaFl) were prepared with PBS, with the concentrations of 0.05, 0.10, 0.15, 0.20, 0.25, 0.30, 0.35, 0.40, 0.45 and 0.50 μg/mL, respectively. The absorbance value was measured with a multifunctional ELISA reader (the excitation wavelength was set at 485 nm and the detection wavelength was 535 nm). Then the standard curve of NaFl concentration and absorbance value was made. […]

By Papp is commonly meant a coefficient for how fast a substance crosses the barrier. For `O=C1OC2(c3ccc(O)cc3Oc3cc(O)ccc32)c2ccccc21` [NaFl, Fluorescein sodium], the Papp A→B at 10 μg/mL (mouse, BBB model group, 30, 60, 90 min) turned out to be 11.2 ± 0.73 ×10⁻⁶ cm/s. Also, the Papp at 10 μg/mL (small blank chamber (no cells)) turned out to be 67.8 ×10⁻⁶ cm/s.

Values taken from patent US20210338842A1, “DUAL-MODALITY NANOPROBE TARGETING GLIOBLASTOMA AND PREPARATION METHOD THEREOF” (West China Hospital of Sichuan University, priority 2020, published 2021).
